Experimental findings from patent US10590115B2, “Tetrahydroquinazoline derivatives useful as anticancer agents” (PFIZER INC., priority 2018, dated 2020) are described below.

Structures are written as SMILES.

As usually defined, the IC50 is the midpoint of a concentration-inhibition curve. A lower IC50 goes with greater potency.

The target in experiment [1] is T1, KRAS G12C in H358 cells (Homo sapiens, UniProt P01116, G12C).
T1 construct: endogenous in cells; host or cells: H358
The experiment in a line: H358 Cell Activity Assay (Raf-1 RBD capture of active Ras, MSD). It counts as cell-based. Conditions: 6 hours treatment. As to the method: (§1) Compounds presented in the present invention lead to the accumulation of the GDP bound Ras upon treatment of human cancer cell line.
(§2) The accumulation of the GDP-bound KRAS G12C in cellular environment was measured based on the principle that KRAS G12C only binds to its downstream kinase; Raf-1 (MAP Kinase Kinase Kinase), when in its active-GTP bound state. In this state, Ras binded to a domain of Raf-1 kinase referred to as the Ras Binding Domain (RBD).
(§3) H358 cells were grown in RPMI 1640 medium (Gibco 11875) supplemented with 10% fetal bovine serum and 1% penicillin/streptomycin. Cells were seeded in 96-well tissue culture plates at a density of 40,000 cells/well and allowed to attach for 16-24 hours. Test compounds were prepared as a 10 mM stock in DMSO and serially diluted in 100% DMSO using a 3-fold dilution scheme. An intermediate 5× concentrated plate in complete growth medium was made and 25 μl/well was added to the 100 μl of cells for a final concentration of 0.1% DMSO. Each concentration of exemplary compound was tested in duplicate. The negative control wells were cells with control inhibitor at 10 μM, and the positive control wells were cells without drugs, DMSO only. Plates were incubated for 6 hours at 37° C., 5% CO2. Following treatment, cells were washed 3× with ice-cold PBS and 100 μl/well ice-cold 1× Assay/Lysis. Buffer with protease inhibitors was added (25 mM HEPES, pH 7.5, 150 mM NaCl, 1% NP-40, 10 mM MgCl2, 1 mM EDTA, 2% Glycerol). Following lysis samples were frozen at −80° C.
(§4) Raf-1 RBD (LJIC-1988A1) was diluted to 100 ng/well in PBS and 5 μl/well was spot coated onto MSD high bind SECTOR plates (L15XB). Plates were incubated at room temperature for 1 hour on an orbital shaker. Plates were washed with PBS/0.05% Tween-20 and 50 μl/well of thawed lysate samples were added, followed by 50 μl of 1% MSD Blocker A in PBS/0.05% Tween-20 (R93BA). Plates were incubated for 1 hour on an orbital shaker and washed with PBS/0.05% Tween-20. 25 μl/well of Anti-pan-Ras Antibody (Cell Biolabs 244003) diluted 1:3000 was added in 1% MSD Blocker A solution and plates were incubated for 1 hour on an orbital shaker and washed with PBS/0.05% Tween-20. SULFO-TAG goat anti-mouse secondary antibody (MSD R32AC) was diluted 1:500 in MSD Blocker A solution and added at 25 μL/well. Plates were incubated for 1 hour on an orbital shaker and washed with PBS/0.05% Tween-20. 150 μl/well of Read Buffer T (MSD R92TC) diluted 1:3 in H2O was added and plates were read on a Meso Scale Discovery Sector Imager S600.
(§5) KRAS signal was normalized to maximum inhibition and DMSO control values, and IC50 values were generated using a 4 parameter fit of the dose response curve. The decrease in IC50 reflects that the exemplary compound lead to a higher level of accumulation of GDP-bound KRAS G12C than another exemplary compounds at specific timepoint of treatment of cancer cell line.

Experiment [2] deals with T2, GDP-loaded kRas (1-169) G12C, C51S, C80L, C118S (Homo sapiens, UniProt P01116, C118S/C51S/C80L/G12C).
T2 construct: GDP-loaded kRas (1-169) G12C, C51S, C80L, C118S
The experiment is described as follows: Mass Spectrometry Reactivity Assay (MSRA), covalent adduct with kRas G12C. The class given is binding. Conditions: 0.5 h at room temperature; 5 μM KRas protein; typical final concentration of the compounds 10 μM. As to the method:
Mass Spectrometry Reactivity Assay (MSRA)
Compounds presented in the present invention covalently bind to kRas G12C using MSRA to detect a covalent adduct of the exemplary compound and kRas G12C. GDP-loaded kRas (1-169) G12C, C51S, C80L, C118S were diluted in the protein assay buffer 25 mM Hepes pH7.5, 200 mM NaCl, 5% glycerol to concentration of 5 μM and 20 μl of protein was transferred into 96-well plate. […] See K-Ras(G12C) inhibitors allosterically control GTP affinity and effector interactions; Ostrem J M, Peters U, Sos M L, Wells J A, Shokat K M; Nature. 2013, Nov. 28; 503(7477):548-51.
Exemplary compounds dissolved in DMSO were diluted 100-fold into solution containing 20 μl of 5 μM KRas protein in the 96-well plate to initiate the reaction. Mosquito (TPP Lab tech) liquid handling robot was used to add compounds to protein solution. Typical final concentration of the compounds was 10 μM. The plates were placed on a shaker for 1 min at RT, sealed and incubated at room temperature for specified time period. 5 μl of reaction mix was added to 10 μl of 0.2% formic acid stop solution and mixed well. Typical end points were 30, 120, 600 and 1440 min.
Data were collected using Waters Acquity H-class UPLC system/Xevo G2-XS TOF mass spectrometer. The protein was injected in their liquid phase onto a Bruker Microtrap protein column TR1/15109/03. The following buffers were used to set LC gradient: Buffer A: 0.2% formic acid H20; B: 0.2% formic acid CAN. The protein was eluted from the column using the following LC Gradient: 0-0.4 min, 10% B to 30% B; 0.4 min-2.4 min, to 90% B, 2.5 min, 10% B, 3 min, 10% B. Initial data analysis was performed using MaxEnt software right after data acquisition.
The standard auto processing function was used to define percentage of unmodified and modified kRas protein using MexEnt software right after data acquisition. The highest peak was defined as 100% while smaller peak as assigned the number defined by autoprocessing function. The percent of modification corresponding to modified with exemplary compound and unmodified KRas GDP-loaded kRas (1-169) G12C, C51S, C80L, C118S were exported to Xcel data analysis software.
The percent of modified protein at the defined concentration of exemplary compound was calculated using the following formula: % mod=Num of modified peak/Sum of modified+unmodified.

Experiment [3] has as its target T3, KRAS G12C in MiaPaCa2 cells (Homo sapiens, UniProt P01116, G12C).
T3 construct: endogenous in cells; host or cells: MiaPaCa2
The experiment is described as follows: MiaPaCa2 Cell Activity Assay (Raf-1 RBD capture of active Ras, MSD). Conditions: MIAPaCa-2 cells, 6 hours treatment; assay limit is 30.0 μM. It counts as cell-based. As to the method:
MiaPaCa2 Cell Activity Assay
as §1, §2
as §3, with “MiaPaCa2” for “H358”, “DMEM” for “RPMI 1640”, “11995)” for “11875)”
as §4, §5

As for `C=CC(=O)N1CCN(c2nc(OCCN(C)C)nc3c2C[C@@H](C)[C@H](c2c(Cl)c(C)cc4[nH]ncc24)C3)CC1` (relative stereo) [Example C8, 1-(4-{(6R,7R)-rel-7-(5-chloro-6-methyl-1H-indazol-4-yl)-2-[2-(dimethylamino)ethoxy]-6-methyl-5,6,7,8-tetrahydroquinazolin-4-yl}piperazin-1-yl)prop-2-en-1-one], the IC50 in experiment [1] turned out to be 0.116 µM; in experiment [3] it was 0.14 µM. Besides, the “% Modification (0.5 h)” value in experiment [2] turned out to be 65%.
Take `C=CC(=O)N1CCN(c2nc(N3CC(N(C)C)C3)nc3c2C[C@@H](C)[C@H](c2c(C)ccc4[nH]ncc24)C3)CC1` (relative stereo) [Example F1, 1-{4-[(6R,7R)-rel-2-[3-(dimethylamino)azetidin-1-yl]-6-methyl-7-(5-methyl-1H-indazol-4-yl)-5,6,7,8-tetrahydroquinazolin-4-yl]piperazin-1-yl}prop-2-en-1-one]: the IC50 in experiment [1] was found to be 0.36 µM; in experiment [3] it was 0.429 µM. The “% Modification (0.5 h)” value in experiment [2] was determined as 59%.
With `C=CC(=O)N1CCN(c2ncnc3c2C[C@@H](C)[C@H](c2c(C)ccc4[nH]ncc24)C3)CC1` [Example A5, 1-{4-[(6R,7R)-6-methyl-7-(5-methyl-1H-indazol-4-yl)-5,6,7,8-tetrahydroquinazolin-4-yl]piperazin-1-yl}prop-2-en-1-one], the results for the IC50 in experiment [1] and in experiment [3] were 0.78 µM and 0.64 µM, respectively. Besides, the “% Modification (0.5 h)” value in experiment [2] turned out to be 77%.
As to `C=CC(=O)N1CCN(c2nc(N3CC(N(C)C)C3)nc3c2C[C@@H](C)[C@H](c2c(Cl)c(C)cc4[nH]ncc24)C3)CC1` [Example F7, 1-(4-{(6R,7R)-7-(5-chloro-6-methyl-1H-indazol-4-yl)-2-[3-(dimethylamino)azetidin-1-yl]-6-methyl-5,6,7,8-tetrahydroquinazolin-4-yl}piperazin-1-yl)prop-2-en-1-one], the IC50 in experiment [1] turned out to be 0.062 µM; in experiment [3] it was 0.108 µM. The “% Modification (0.5 h)” value in experiment [2] is recorded as 82%.
As for `C=CC(=O)N1CCN(c2nc(OCCN(C)C)nc3c2C[C@@H](C)[C@H](c2c(C)ccc4[nH]ncc24)C3)CC1` [Example C6, 1-{4-[(6R,7R)-2-[2-(dimethylamino)ethoxy]-6-methyl-7-(5-methyl-1H-indazol-4-yl)-5,6,7,8-tetrahydroquinazolin-4-yl]piperazin-1-yl}prop-2-en-1-one], the IC50 in experiment [1] amounted to 0.521 µM; in experiment [3], 0.26 µM. Besides, in experiment [2], the “% Modification (0.5 h)” value was 66%.
`C=CC(=O)N1CCN(c2nc(N3CC(N(C)C)C3)nc3c2C[C@@H](C)[C@H](c2c(C)c(Cl)cc4[nH]ncc24)C3)CC1` [Example F14, 1-(4-{(6R,7R)-7-(6-chloro-5-methyl-1H-indazol-4-yl)-2-[3-(dimethylamino)azetidin-1-yl]-6-methyl-5,6,7,8-tetrahydroquinazolin-4-yl}piperazin-1-yl)prop-2-en-1-one]: the IC50 is 0.102 µM in experiment [1] and 0.068 µM in experiment [3]. The “% Modification (0.5 h)” value in experiment [2] is recorded as 72%.
With `C=CC(=O)N1CCN(c2nc(N3CC(N(C)C)C3)nc3c2C[C@@H](C)[C@H](c2c(Cl)c(C)cc4[nH]ncc24)C3)C[C@H]1C` [Example F12, 1-[(2R)-4-{(6R,7R)-7-(5-chloro-6-methyl-1H-indazol-4-yl)-2-[3-(dimethylamino)azetidin-1-yl]-6-methyl-5,6,7,8-tetrahydroquinazolin-4-yl}-2-methylpiperazin-1-yl]prop-2-en-1-one], the IC50 in experiment [1] came to 0.064 µM; in experiment [3], 0.06 µM. Also, in experiment [2], the “% Modification (0.5 h)” value turned out to be 84%.
For the compound `C=CC(=O)N1CCN(c2nc(OC[C@@H]3CCCN3C)nc3c2C[C@@H](C)[C@H](c2c(C)ccc4[nH]ncc24)C3)CC1` [Example C9, 1-{4-[(6R,7R)-6-methyl-7-(5-methyl-1H-indazol-4-yl)-2-{[(2S)-1-methylpyrrolidin-2-yl]methoxy}-5,6,7,8-tetrahydroquinazolin-4-yl]piperazin-1-yl}prop-2-en-1-one], the IC50 came to 0.27 µM in experiment [1] and 0.382 µM in experiment [3]. Moreover, in experiment [2], the “% Modification (0.5 h)” value is recorded as 74%.
Consider `C=CC(=O)N1CCN(c2nc(N3CC(N(C)C)C3)nc3c2C[C@@H](C)[C@H](c2c(Cl)ccc4[nH]ncc24)C3)CC1` (relative stereo) [Example F5, 1-(4-{(6R,7R)-rel-7-(5-chloro-1H-indazol-4-yl)-2-[3-(dimethylamino)azetidin-1-yl]-6-methyl-5,6,7,8-tetrahydroquinazolin-4-yl}piperazin-1-yl)prop-2-en-1-one], for which the figures for the half-maximal inhibitory concentration (IC50) in experiment [1] and in experiment [3] were 0.145 µM and 0.154 µM, respectively. Besides, in experiment [2], the “% Modification (0.5 h)” value was 72%.
On to `C=CC(=O)N1CCN(c2nc(OC[C@H]3CCCN3C)nc3c2C[C@@H](C)[C@H](c2c(C)ccc4[nH]ncc24)C3)CC1` (relative stereo) [Example C10, 1-{4-[(6R,7R)-rel-6-methyl-7-(5-methyl-1H-indazol-4-yl)-2-{[(2R)-1-methylpyrrolidin-2-yl]methoxy}-5,6,7,8-tetrahydroquinazolin-4-yl]piperazin-1-yl}prop-2-en-1-one], for which the results for the IC50 in experiment [1] and in experiment [3] were 0.129 µM and 0.236 µM, respectively. The “% Modification (0.5 h)” value in experiment [2] came to 80%.
